One may read the GI50 as the concentration at which growth is held to half of that of the control. By IC50 is commonly meant the concentration at which inhibition is half-maximal.

Experimental findings from patent US11230525B2, “Organic sulfur compound, method for preparing same, and pharmaceutical composition for preventing or treating cancer or an inflammatory disease, containing same as active ingredient” (SOOKMYUNG WOMENS UNIVERSITY INDUSTRY-ACADEMIC COOPERATION …, priority 2016, dated 2022) are described below.

For test [1], the system named is renal cancer cell line (ACHN). Nature of the test: Cancer proliferation inhibitory activity (SRB, GI50), ACHN. The test is classed as cell-based. Conditions: Homo sapiens, 48 hours. The gist of the method: (§1)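 Plate cells in RPMI 1640 containing 10% fetal bovine serum (37 °C, humidified 5% CO2). Add compound (0.1 μM to 10 μM) or 0.1% DMSO alone and incubate 48 h. Fix with trichloroacetic acid, stain with SRB, wash, solubilise dye and measure OD540 to obtain GI50.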

For test [2], the system named is breast cancer cell line (MDA-MB-231). Nature of the test: Cancer proliferation inhibitory activity (SRB, GI50), MDA-MB-231. The test is classed as cell-based. Conditions: Homo sapiens, 48 hours. Put shortly: as §1
For test [3], the system named is prostate cancer cell line (PC-3). Nature of the test: Cancer proliferation inhibitory activity (SRB, GI50), PC-3. Conditions: Homo sapiens, 48 hours. The test is classed as cell-based. Put shortly:
as §1

In test [4] the test system is gastric cancer cell line (NUGC-3). Nature of the test: Cancer proliferation inhibitory activity (SRB, GI50), NUGC-3. The test is classed as cell-based. Conditions: Homo sapiens, 48 hours. The gist of the method: as §1
The subject of test [5] is colorectal cancer cell line (HCT-15). Nature of the test: Cancer proliferation inhibitory activity (SRB, GI50), HCT-15. Conditions: Homo sapiens, 48 hours. It is filed as cell-based. Put shortly:
as §1

Test [6] relates to lung cancer cell line (NCl-H23). Nature of the test: Cancer proliferation inhibitory activity (SRB, GI50), NCI-H23. Conditions: Homo sapiens, 48 hours. It is filed as cell-based. Put shortly:
as §1

In another test the target is HDAC 1 (Homo sapiens, UniProt Q13547). Nature of the test: HDAC enzyme fluorescence assay, HDAC 1. The test is classed as biochemical. Conditions: recombinant HDAC enzyme, Boc-Lys(acetyl)-AMC. The protocol:
(§2) Particularly, HDAC enzyme analysis was performed based on a uniform fluorescence emission assay. First, the compounds of examples of the present invention or comparative example 1 were diluted at different concentrations, which were treated to the analysis buffer containing 25 mM HEPES (pH 8.0), 137 mM NaCl, 1 mM MgCl2 and 2.7 mM KCL, followed by culture of the recombinant HDAC enzyme. 10 minutes later, Boc-Lys(acetyl)-AMC, the fluorescence inducing substrate, was added thereto, followed by further culture at 37° C. At this time, the concentration of the fluorescence inducing substrate and the culture time were adjusted according to the isotypes of the HDAC enzyme. The reaction was terminated by treating trypsin at room temperature for 20 minutes. The fluorescence intensity was measured using a fluorescence analyzer at an excitation wavelength of 380 nm and an emission wavelength of 460 nm, respectively. The inhibition rate was calculated from the measured fluorescence intensity of each well with comparing to that of the control well. IC50 of the compound was calculated by analyzing the dose-reaction inhibition curve.

The next test deals with T1, HDAC 6 (Homo sapiens, UniProt Q9UBN7).
T1 sequence (Q9UBN7 1-1215): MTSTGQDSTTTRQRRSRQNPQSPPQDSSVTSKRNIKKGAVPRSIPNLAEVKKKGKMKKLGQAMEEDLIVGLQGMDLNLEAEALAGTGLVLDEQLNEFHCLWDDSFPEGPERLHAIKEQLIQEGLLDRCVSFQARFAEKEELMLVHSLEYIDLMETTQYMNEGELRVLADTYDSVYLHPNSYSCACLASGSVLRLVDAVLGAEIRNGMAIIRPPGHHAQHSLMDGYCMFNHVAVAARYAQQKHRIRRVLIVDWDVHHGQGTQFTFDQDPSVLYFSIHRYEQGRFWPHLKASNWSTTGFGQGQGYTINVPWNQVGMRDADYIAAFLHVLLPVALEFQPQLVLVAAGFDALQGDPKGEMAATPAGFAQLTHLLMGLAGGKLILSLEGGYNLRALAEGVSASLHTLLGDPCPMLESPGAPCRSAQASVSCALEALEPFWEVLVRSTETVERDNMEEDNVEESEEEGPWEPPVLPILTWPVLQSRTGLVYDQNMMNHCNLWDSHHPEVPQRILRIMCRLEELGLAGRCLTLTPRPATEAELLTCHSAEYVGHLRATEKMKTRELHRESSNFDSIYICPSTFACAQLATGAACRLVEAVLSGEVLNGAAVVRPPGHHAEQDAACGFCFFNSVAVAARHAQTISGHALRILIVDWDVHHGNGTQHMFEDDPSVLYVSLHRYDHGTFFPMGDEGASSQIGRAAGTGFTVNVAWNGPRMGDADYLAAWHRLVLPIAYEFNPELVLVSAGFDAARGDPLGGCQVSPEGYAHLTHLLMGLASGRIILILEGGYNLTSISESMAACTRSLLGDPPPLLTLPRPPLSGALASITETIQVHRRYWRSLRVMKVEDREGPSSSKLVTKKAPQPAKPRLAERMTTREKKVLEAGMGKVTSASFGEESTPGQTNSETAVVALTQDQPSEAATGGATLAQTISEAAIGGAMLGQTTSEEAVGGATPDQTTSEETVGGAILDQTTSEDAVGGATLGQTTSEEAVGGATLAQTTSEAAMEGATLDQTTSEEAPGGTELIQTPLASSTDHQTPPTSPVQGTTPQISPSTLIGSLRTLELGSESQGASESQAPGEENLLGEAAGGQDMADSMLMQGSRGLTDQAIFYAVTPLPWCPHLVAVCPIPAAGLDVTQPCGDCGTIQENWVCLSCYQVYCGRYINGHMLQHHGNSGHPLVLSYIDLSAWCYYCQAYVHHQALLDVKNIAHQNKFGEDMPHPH
Nature of the test: HDAC enzyme fluorescence assay, HDAC 6. It is filed as biochemical. Conditions: recombinant HDAC enzyme, Boc-Lys(acetyl)-AMC. The protocol:
as §2

The target of another test is T2, HDAC 8 (Homo sapiens, UniProt Q9BY41).
T2 sequence (Q9BY41 1-377): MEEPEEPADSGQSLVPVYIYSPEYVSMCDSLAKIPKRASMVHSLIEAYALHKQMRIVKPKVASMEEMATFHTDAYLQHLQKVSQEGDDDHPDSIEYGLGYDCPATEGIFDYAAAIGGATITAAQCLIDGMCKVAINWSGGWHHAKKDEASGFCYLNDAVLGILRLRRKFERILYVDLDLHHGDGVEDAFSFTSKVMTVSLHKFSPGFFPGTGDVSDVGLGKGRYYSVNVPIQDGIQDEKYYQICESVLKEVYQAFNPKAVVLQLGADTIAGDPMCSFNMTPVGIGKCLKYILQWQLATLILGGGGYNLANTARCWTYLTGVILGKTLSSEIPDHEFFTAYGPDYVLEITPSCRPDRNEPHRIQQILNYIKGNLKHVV
Nature of the test: HDAC enzyme fluorescence assay, HDAC 8. It is filed as biochemical. On the set-up: Inhibitory activity (%) HDAC 8: concentration or dose not given beside the values. The gist of the method: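 Recombinant HDAC8 preincubated 10 min with compound in 25 mM HEPES pH 8.0, 137 mM NaCl, 1 mM MgCl2, 2.7 mM KCl, then Boc-Lys(acetyl)-AMC added at 37° C (level and time set per isoform). Trypsin development 20 min at room temperature, fluorescence 380/460 nm; activity expressed as percent relative to SAHA reference.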

Chain of HDAC 1 (Q13547 whole entry, species assumed): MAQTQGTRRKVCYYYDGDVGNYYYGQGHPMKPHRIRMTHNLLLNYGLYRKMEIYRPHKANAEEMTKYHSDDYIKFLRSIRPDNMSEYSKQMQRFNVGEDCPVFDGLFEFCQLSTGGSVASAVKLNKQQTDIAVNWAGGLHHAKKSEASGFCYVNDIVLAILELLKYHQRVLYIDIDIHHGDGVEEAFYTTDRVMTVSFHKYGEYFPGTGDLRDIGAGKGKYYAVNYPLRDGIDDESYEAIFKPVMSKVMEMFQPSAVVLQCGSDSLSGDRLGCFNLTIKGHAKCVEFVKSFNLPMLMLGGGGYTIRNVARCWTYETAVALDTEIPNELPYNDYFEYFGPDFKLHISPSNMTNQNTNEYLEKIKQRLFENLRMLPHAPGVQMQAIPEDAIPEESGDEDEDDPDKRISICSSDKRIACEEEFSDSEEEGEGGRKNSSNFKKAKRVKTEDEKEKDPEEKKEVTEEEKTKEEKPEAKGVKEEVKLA

Turning to `[O-][S+](C/C=C\SSCc1ccccc1)c1ccccc1` (stereo not shown) [Example 6, (Z)-1-benzyl-2-(3-(phenylsulfinyl)prop-1-enyl)disulfane], the GI50 in test [1] stood at 5.42 µM; in test [2], 3.96 µM; in test [3] it was 5.35 µM; in test [4], 3.25 µM; in test [5] it was 6.48 µM; in test [6], 4.91 µM. The IC50 is 3.89 µM at HDAC 1; 49.1 µM on HDAC 6; 0.043 µM on HDAC 8 (recombinant HDAC enzyme, Boc-Lys(acetyl)-AMC, read-out: IC50 HDAC 8). Further, the “Inhibitory activity (%) HDAC 8” value on HDAC 8 ((HDAC inhibitory activity of example compound/HDAC inhibitory activity of SAHA) × 100) is recorded as 129.1%.
